Laboratory results: the supplement of paper PMC13380429
± gives the standard deviation of the averaged measurements.

Legend:
Conditions in all cases: 72 h
[1] = test system: Vero E6; test: drug sensitivity score (DSS) for viability; higher = more toxic; extreme values may be limits of the assay
[2] = test system: Caco-2; test: as above
[3] = test system: HepG2; test: as above
[4] = test system: Calu-3; test: as above
[5] = test system: U2OS; test: as above
[6] = test system: Vero E6; test: cell viability relative to DMSO; higher = less toxic
[7] = test system: Caco-2; test: as above
[8] = test system: HepG2; test: as above
[9] = test system: Calu-3; test: as above
[10] = test system: U2OS; test: as above
[11] = test system: Vero E6; test: relative viability EC50 (midpoint between 100% and the lowest measured viability); higher = less toxic
[12] = test system: Caco-2; test: as above
[13] = test system: HepG2; test: as above
[14] = test system: Calu-3; test: as above
[15] = test system: U2OS; test: as above

Compound | drug sensitivity score [1] | drug sensitivity score [2] | drug sensitivity score [3] | drug sensitivity score [4] | drug sensitivity score [5] | cell viability ([6]; 1 nM) [%] | cell viability ([6]; 10 nM) [%] | cell viability ([6]; 100 nM) [%] | cell viability ([6]; 1000 nM) [%] | cell viability ([6]; 10000 nM) [%] | cell viability ([7]; 1 nM) [%] | cell viability ([7]; 10 nM) [%] | cell viability ([7]; 100 nM) [%] | cell viability ([7]; 1000 nM) [%] | cell viability ([7]; 10000 nM) [%] | cell viability ([8]; 1 nM) [%] | cell viability ([8]; 10 nM) [%] | cell viability ([8]; 100 nM) [%] | cell viability ([8]; 1000 nM) [%] | cell viability ([8]; 10000 nM) [%] | cell viability ([9]; 1 nM) [%] | cell viability ([9]; 10 nM) [%] | cell viability ([9]; 100 nM) [%] | cell viability ([9]; 1000 nM) [%] | cell viability ([9]; 10000 nM) [%] | cell viability ([10]; 1 nM) [%] | cell viability ([10]; 10 nM) [%] | cell viability ([10]; 100 nM) [%] | cell viability ([10]; 1000 nM) [%] | cell viability ([10]; 10000 nM) [%] | relative viability EC50 [11] [µM] | relative viability EC50 [12] [µM] | relative viability EC50 [13] [µM] | relative viability EC50 [14] [µM] | relative viability EC50 [15] [µM]
O=C(/C=C/c1ccc(O)cc1)c1ccc(O)cc1O [isoliquiritigenin] | 0 | 0.2 | 0 | 0 | 0 | 99.4 | 107 | 93.6 | 104 | 113 | 102 | 92.1 | 95.6 | 92.2 | 86.4 | 102 | 107 | 91.9 | 101 | 96.5 | 103 | 93.7 | 107 | 107 | 112 | 97.3 | 99.7 | 103 | 98.2 | 94.9 | > 10 | > 10 | > 10 | > 10 | > 10
CC(C)(C)NC[C@H](O)COc1cccc2c1CCCC2=O [levobunolol] | 0 | 0 | 0 | 0 | 0 | 105 ± 6.1 | 94.6 ± 2.8 | 95.6 ± 5.7 | 90.5 ± 3.1 | 101 ± 3.8 | 88 ± 1.8 | 94.8 ± 5.9 | 96 ± 4.7 | 101.3 ± 0.64 | 97.2 ± 1.1 | 100 ± 4.1 | 95.8 ± 2.8 | 112 ± 2 | 94.8 ± 4.3 | 97.9 ± 2.4 | 99.2 ± 9.6 | 102 ± 0.99 | 93.9 ± 3.1 | 103 ± 3.2 | 104.25 ± 0.071 | 97.15 ± 0.78 | 102 ± 2 | 101.5 ± 0.21 | 101.3 ± 0.78 | 103 ± 0.21 | > 10 | > 10 | > 10 | > 10 | > 10
CSCC[C@H](NC(=O)[C@H](CC(C)C)NC(=O)[C@@H](Cc1c[nH]c2ccccc12)NC(=O)[C@H](Cc1ccccc1)N(C)C(=O)[C@@H](Cc1c[nH]c2ccccc12)NC(=O)[C@@H](N)CCCNC(=N)N)C(N)=O [antagonist-g] | 0 | 0 | 0 | 0 | 0 | 96.2 | 97 | 102 | 85.6 | 96.3 | 93.8 | 89.7 | 96.3 | 75.6 | 122 | 104 | 98.1 | 103 | 84.8 | 105 | 105 | 91 | 98.8 | 89.3 | 111 | 99.9 | 93.1 | 97.7 | 97 | 97.4 | > 10 | > 10 | > 10 | > 10 | > 10
CC(C)[C@@H](CN1CC[C@@](C)(c2cccc(O)c2)[C@@H](C)C1)NC(=O)[C@H]1Cc2ccc(O)cc2CN1 [JDTic] | 0 | 0 | 0 | 0.2 | 0 | 99.4 | 98 | 97.6 | 95.1 | 102 | 91.9 | 95.2 | 96.7 | 93.3 | 98.5 | 100 | 95.6 | 99.4 | 101 | 99.6 | 103 | 103 | 95 | 109 | 83.2 | 96.7 | 104 | 95.5 | 101 | 102 | > 10 | > 10 | > 10 | > 10 | > 10
CC(C)[C@H](C(=O)Nc1ccc(C(=O)NO)cc1)c1ccccc1 [AR-42] | 18.9 | 15.3 | 18 | 14.2 | 17.2 | 97 | 95.4 | 88.7 | 5.2 | -0.1 | 101 | 95 | 97.6 | 18 | 1.2 | 91.7 | 103 | 75.3 | 18.6 | 0 | 96.5 | 90.5 | 83 | 36 | 12 | 98.9 | 97.3 | 86.5 | 15.4 | 0.3 | 0.26 | 0.498 | 0.271 | 0.371 | 0.328
Cc1ccsc1C(=CCCN1CCC[C@@H](C(=O)O)C1)c1sccc1C [tiagabine] | 0 | 0 | 0 | 0 | 0 | 98.2 | 100 | 92.4 | 104 | 106 | 93.5 | 97.9 | 102 | 92.3 | 106 | 96 | 103 | 97.3 | 103 | 98.6 | 117 | 103 | 99.8 | 98.1 | 100 | 101 | 94.2 | 101 | 98 | 94.2 | > 10 | > 10 | > 10 | > 10 | > 10
NCCC(=O)N[C@@H](Cc1c[nH]cn1)C(=O)O [carnosine] | 5.2 | 6.6 | 4.8 | 2.8 | 4.1 | 94.3 | 95.3 | 95 | 95.5 | 17.9 | 99.5 | 97.8 | 92.3 | 88.6 | 15.4 | 111 | 101 | 97 | 101 | 12 | 95 | 93.4 | 104 | 99.4 | 48.6 | 96 | 97.2 | 92.3 | 99.1 | 28.7 | 2.74 | 2.08 | 3.22 | 3.08 | 3.07
